Where “and” joins values, the source holds several entries; their conditions need not be identical. Equal entries are not always repeated. Inconclusive results and toxic doses are left out. Cut-off read from the data, not from the text of the source: active = T/C of 150% or more; inactive = T/C below 125%.
System: L1210 leukemia ip in BDF1 mice, survival T/C
Assay: NCI In Vivo Anticancer Drug Screen. Data for tumor model L1210 Leukemia (intraperitoneal) in B6D2F1 (BDF1) mice
Details: endpoint: mean survival time, higher = longer survival
Outline: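 Survival endpoint. Drug-treated group vs vehicle group, expressed as T divided by C. Tumor passaged by transplantation.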

[1] = dose: 100.0 mg/kg/injection, schedule: Q01DX001 (ip), vehicle: saline
[2] = dose: 200.0 mg/kg/injection, schedule: Q01DX001 (ip), vehicle: saline
[3] = dose: 400.0 mg/kg/injection, schedule: Q01DX001 (ip), vehicle: saline
[4] = dose: 25.0 mg/kg/injection, schedule: Q01DX009 (ip), vehicle: Klucel (hydroxypropylcellulose) (HPC)
[5] = dose: 50.0 mg/kg/injection, schedule: Q01DX009 (ip), vehicle: Klucel (hydroxypropylcellulose) (HPC)
[6] = dose: 100.0 mg/kg/injection, schedule: Q04DX003 (ip), vehicle: saline
[7] = dose: 200.0 mg/kg/injection, schedule: Q04DX003 (ip), vehicle: saline
[8] = dose: 400.0 mg/kg/injection, schedule: Q04DX003 (ip), vehicle: saline
[9] = dose: 100.0 mg/kg/injection, schedule: Q01DX001 (ip), vehicle: carboxymethylcellulose (CMC)
[10] = dose: 200.0 mg/kg/injection, schedule: Q01DX001 (ip), vehicle: carboxymethylcellulose (CMC)
[11] = dose: 400.0 mg/kg/injection, schedule: Q01DX001 (ip), vehicle: carboxymethylcellulose (CMC)
[12] = dose: 100.0 mg/kg/injection, schedule: Q04DX002 (ip), vehicle: Klucel (hydroxypropylcellulose) (HPC)
[13] = dose: 200.0 mg/kg/injection, schedule: Q04DX002 (ip), vehicle: Klucel (hydroxypropylcellulose) (HPC)
[14] = dose: 400.0 mg/kg/injection, schedule: Q04DX002 (ip), vehicle: Klucel (hydroxypropylcellulose) (HPC)
[15] = dose: 100.0 mg/kg/injection, schedule: Q01DX009 (ip), vehicle: Klucel (hydroxypropylcellulose) (HPC)
[16] = dose: 200.0 mg/kg/injection, schedule: Q01DX009 (ip), vehicle: Klucel (hydroxypropylcellulose) (HPC)
[17] = dose: 5.0 mg/kg/injection, schedule: Q01DX001 (ip), vehicle: saline
[18] = dose: 10.0 mg/kg/injection, schedule: Q01DX001 (ip), vehicle: saline
[19] = dose: 20.0 mg/kg/injection, schedule: Q01DX001 (ip), vehicle: saline

Measured: T/C

Cc1ccc(C(OC(=O)c2ccccc2)c2nccc3ccccc23)cc1 (configuration not stated)
inactive: [1] 86 % of control | [2] 98 % of control | [3] 98 % of control

CCCCCCCCC(CCCCCCCC)CC1CCC2CCCC21 (configuration not stated)
inactive: dose: 75.0 mg/kg/injection, schedule: Q01DX001 (ip), vehicle: saline with Tween-80 93 % of control | dose: 150.0 mg/kg/injection, schedule: Q01DX001 (ip), vehicle: saline with Tween-80 90 % of control | dose: 300.0 mg/kg/injection, schedule: Q01DX001 (ip), vehicle: saline with Tween-80 90 % of control

Cc1ccc(S(=O)(=O)NC(=O)N(Cc2ccccc2)C(C)(C)C)cc1
inactive: [4] 107 % of control | [5] 100 % of control

CC1=CC(=O)OC(C)(C)C1
inactive: [6] 97 % of control | [7] 96 % of control | [8] 99 % of control

CN(C)/C=N/c1nccs1
inactive: [1] 104 % of control | [2] 107 % of control | [3] 107 % of control

CCCCCCc1cc(N=Nc2ccc(S(=O)(=O)Nc3nccs3)cc2)c(O)cc1O
inactive: [9] 95 % of control | [10] 98 % of control | [11] 95 % of control

O=C1OC(/C=C\c2ccccc2)=NC/1=C\c1cc(Cl)cc(Cl)c1O
inactive: [12] 108 % of control | [13] 112 % of control | [14] 108 % of control

COc1cccc(/C=C/[N+](=O)[O-])c1
inactive: dose: 12.5 mg/kg/injection, schedule: Q01DX009 (ip), vehicle: Klucel (hydroxypropylcellulose) (HPC) 95 % of control | [4] 98 % of control | dose: 25.0 mg/kg/injection, schedule: Q04DX003 (ip), vehicle: Klucel (hydroxypropylcellulose) (HPC) 89 % of control | dose: 45.0 mg/kg/injection, schedule: Q04DX003 (ip), vehicle: saline with Tween-80 103 % of control | [5] 97 % of control | dose: 50.0 mg/kg/injection, schedule: Q04DX003 (ip), vehicle: Klucel (hydroxypropylcellulose) (HPC) 96 % of control | dose: 90.0 mg/kg/injection, schedule: Q04DX003 (ip), vehicle: saline with Tween-80 106 % of control | dose: 180.0 mg/kg/injection, schedule: Q04DX003 (ip), vehicle: saline with Tween-80 90 % of control

CC1CC(NC(=S)N(C)C)CC(C)(C)C1 (configuration not stated)
inactive: [5] 92 % of control | [15] 100 % of control | [16] 102 % of control

c1ccc2c(c1)ccc1c3c([nH]c12)CCCC3
inactive: [9] 88 % of control | [10] 98 % of control | [11] 88 % of control

O=S(=O)(/C=C(/Br)c1ccccc1)c1ccccc1
inactive: [1] 92 % of control | [2] 97 % of control | [3] 95 % of control

Cc1cc(C(=O)O)c(C)o1
inactive: [15] 96 % of control | [16] 93 % of control

Cc1ncc2c(=O)n(-c3ccc(Br)cc3)[nH]c2n1
inactive: dose: 100.0 mg/kg/injection, schedule: Q04DX003 (ip), vehicle: gum acacia 96 % of control | dose: 200.0 mg/kg/injection, schedule: Q04DX003 (ip), vehicle: gum acacia 97 % of control | dose: 400.0 mg/kg/injection, schedule: Q04DX003 (ip), vehicle: gum acacia 92 % of control

ClCCN(CCCl)c1ccc(C=Nc2ccc(/C=C\c3ccnc4ccccc34)cc2)cc1
inactive: dose: 100.0 mg/kg/injection, schedule: Q01DX001 (ip), vehicle: other 96 % of control | dose: 200.0 mg/kg/injection, schedule: Q01DX001 (ip), vehicle: other 94 % of control | dose: 400.0 mg/kg/injection, schedule: Q01DX001 (ip), vehicle: other 94 % of control

O=C1NC(=O)c2c(Cl)c(Cl)c(Cl)c(Cl)c21
inactive: dose: 25.0 mg/kg/injection, schedule: Q04DX003 (ip), vehicle: saline 95 % of control | dose: 50.0 mg/kg/injection, schedule: Q04DX003 (ip), vehicle: saline 106 % of control | [6] 92 % of control and 93 % of control | [7] 98 % of control | [8] 111 % of control

CC(C)CSC(SCC(C)C)C(O)C(O)C(O)CO (configuration not stated)
inactive: dose: 75.0 mg/kg/injection, schedule: Q01DX001 (ip), vehicle: carboxymethylcellulose (CMC) 98 % of control | dose: 150.0 mg/kg/injection, schedule: Q01DX001 (ip), vehicle: carboxymethylcellulose (CMC) 109 % of control | dose: 300.0 mg/kg/injection, schedule: Q01DX001 (ip), vehicle: carboxymethylcellulose (CMC) 97 % of control

COc1cc(/C=N\NC(=O)CC#N)cc(OC)c1OC
inactive: dose: 50.0 mg/kg/injection, schedule: Q01DX009 (ip), vehicle: saline with Tween-80 87 % of control | dose: 100.0 mg/kg/injection, schedule: Q01DX009 (ip), vehicle: saline with Tween-80 87 % of control | dose: 200.0 mg/kg/injection, schedule: Q01DX009 (ip), vehicle: saline with Tween-80 94 % of control

OC(c1nc2ccccc2[nH]1)C(O)C(O)C(O)c1nc2ccccc2[nH]1 (configuration not stated)
inactive: [1] 105 % of control | [12] 100 % of control | [2] 96 % of control | [13] 87 % of control | [3] 86 % of control | [14] 97 % of control

O=P(NC12CC3CC(CC(C3)C1)C2)(Oc1ccccc1)Oc1ccccc1
inactive: dose: 100.0 mg/kg/injection, schedule: Q04DX003 (ip), vehicle: Klucel (hydroxypropylcellulose) (HPC) 101 % of control | dose: 200.0 mg/kg/injection, schedule: Q04DX003 (ip), vehicle: Klucel (hydroxypropylcellulose) (HPC) 97 % of control | dose: 400.0 mg/kg/injection, schedule: Q04DX003 (ip), vehicle: Klucel (hydroxypropylcellulose) (HPC) 87 % of control

O=C(O)C(O)C(O)C(=O)O.[Cu+2] (configuration not stated)
inactive: [17] 95 % of control | [18] 89 % of control | [19] 93 % of control | dose: 40.0 mg/kg/injection, schedule: Q01DX001 (ip), vehicle: saline 101 % of control

OC(c1ccccc1)c1ccccc1
inactive: [6] 95 % of control | [7] 100 % of control | [8] 97 % of control

CSC(c1ccccc1F)=[N+]1CCCCC1
inactive: [17] 100 % of control | [18] 96 % of control | [19] 95 % of control

CCCCC(O)(C(C)C)C(C)C
inactive: [9] 102 % of control | [10] 98 % of control | [11] 98 % of control

O=C(/C=C/c1cccc([N+](=O)[O-])c1)CCl
inactive: dose: 25.0 mg/kg/injection, schedule: Q04DX003 (ip), vehicle: saline with Tween-80 110 % of control | dose: 50.0 mg/kg/injection, schedule: Q04DX003 (ip), vehicle: saline with Tween-80 105 % of control | dose: 100.0 mg/kg/injection, schedule: Q04DX003 (ip), vehicle: saline with Tween-80 103 % of control and 104 % of control

O=[N+]([O-])c1cccc(S(=O)(=O)OCC2CO2)c1 (configuration not stated)
inactive: [15] 98 % of control | [16] 104 % of control

CC(=O)NC(C)(SC(C)=O)C(=O)O (configuration not stated)
inactive: dose: 100.0 mg/kg/injection, schedule: Q01DX001 (ip), vehicle: Klucel (hydroxypropylcellulose) (HPC) 94 % of control | dose: 200.0 mg/kg/injection, schedule: Q01DX001 (ip), vehicle: Klucel (hydroxypropylcellulose) (HPC) 95 % of control | dose: 400.0 mg/kg/injection, schedule: Q01DX001 (ip), vehicle: Klucel (hydroxypropylcellulose) (HPC) 94 % of control

CC(N=c1nc(N)ccn1C1OC(CO)C(O)C1O)C(=O)O (configuration not stated)
inactive: dose: 200.0 mg/kg/injection, schedule: Q01DX005 (ip), vehicle: saline 120 % of control

Source: PubChem BioAssay AID248 (DTP/NCI, 2004)
